Data on 1 compound can be found in patent US20240115670A1, “FIBROBLAST ACTIVATION PROTEIN MODULATION TO ALTER IMMUNE CELL MIGRATION AND TUMOR INFILTRATION” (Georgetown University, priority 2021, published 2024).

The subject of data set [1] is primary human NK cells. The data set is described as follows: 2D live imaging of primary NK cell migration on EL08.1D2 stromal cells. The data set is classed as cell-based. The note with it: 10 uM Cpd60 vs vehicle; three donors. As to the method:
2D migration studies were done as previously reported. In brief, EL08.1D2 stromal cells were grown to a confluent monolayer on Lab-Tek chamber slides pre-coated with 0.1% gelatin (Stemcell Technologies). […] Cells were imaged in 96-well ImageLock plates (Essen Bioscience) on the IncuCyte ZOOM Live-Cell Analysis System (Essen Bioscience) at 37° C. every 2 min in the phase-contrast mode (10× objective). Tracking of live cells was done using the manual tracking feature in Volocity or FIJI. Tracks were plotted using the Chemotaxis plugin of FUI. Cells that were in the field of imaging for fewer than two frames were discarded, as were cells which were non-adherent or floating. EL08.1D2 cells were used as de facto fiducial markers to ensure that neither they or the microscope stage was drifting and causing apparent NK cell movement.
Length and displacement measurements were derived directly from tracked cells and graphed using GraphPad software. Velocity data was obtained by dividing the total track length by the time of imaging.
2D migration studies were done as previously reported (31, 32). In brief, EL08.1D2 stromal cells were grown to a confluent monolayer on flat-bottomed 96 well ImageLock plates (Essen Bioscience) pre-coated with 0.1% gelatin (Stemcell Technologies). […] Freshly isolated human NK cells were imaged in 96-well on the IncuCyte ZOOM Live-Cell Analysis System (Essen Bioscience) at 37° C. every 2 min in the phase-contrast mode (10× objective). Tracking of live cells was done using the manual tracking feature in Fiji (33). Tracks were plotted using the Chemotaxis plugin of FIJI. Cells that were in the field of imaging for fewer than two frames were discarded, as were cells which were non-adherent or floating. EL08.1D2 cells were used as de facto fiducial markers to ensure that neither they or the microscope stage was drifting and causing apparent NK cell movement. Length and displacement measurements were derived directly from tracked cells and graphed using GraphPad software. Velocity data was obtained by dividing the total track length by the time of imaging.

The subject of data set [2] is NK92-GFP cells. Briefly: NK92-GFP infiltration into PDAC tumor spheroids. In kind it is cell-based, human. The note with it: 10 uM Cpd60, 4 hours. As to the method: PSC or PANC-1 spheroids were generated by plating 10,000 cells in a 0.1% agarose coated U-bottomed 96-well plate. PSC+PANC-1 spheroids were generated by plating 5,000 cells of each cell type. Aggregation was promoted by centrifuging the cells at 1000 rpm for 5 minutes. Cells incubated overnight at 37° C. The next day, 1,000 NK92-GFP cells were added per well and incubated for 4 hours at 37° C. Spheroids were imaged using the Olympus IX-71 Inverted Epifluorescent Microscope at 5×. Images were analyzed in FIJI. All images underwent identical contrast enhancement and background reduction. Then a line was drawn from spheroid edge to spheroid center and GFP intensity along that line was measured. Graphs of resulting data and statistical analysis were generated in Graphpad Prism 9.

The test system of data set [3] is NK92-GFP cells. Briefly: NK92-GFP infiltration into cell clusters embedded in 3D matrix. The data set is classed as cell-based, human. The note with it: 10 uM Cpd60. The method, then:
3D clusters were generated, embedded and stained as previously described. In brief, clusters were generated by plating 1,000 cells per well into 96-well Nunclon Sphera low adhesion plates (Thermo Scientific, cat #174925) and incubated overnight at 37° C. The following day, 6 clusters were embedded into an ECM containing 2,000 NK cells and plated into one well of a Nunc Lab-Tek II 8-well chamber slide (ThermoScientific, cat #154534PK). The ECM mixture consisted of 20% growth factor reduced Matrigel (Corning, 10-12 mg/ml stock concentration, #354230) and 80% rat tail collagen type I at 3 mg/mL (gibco, A1048301). Cells were either imaged for the following 24 hours every 30 minutes using the Zeiss LSM800 scanning confocal microscope or allowed to incubate overnight at 37° C. After 24 hours, cells in matrix were fixed with 5.4% formalin for 1 hour, permeabilized with 0.5% Triton-X and blocked using goat serum. For invasion assays, NK-92-GFP cells were stained with anti-GFP (ThermoFisher, cat #A-11122). For the cell lysis assays clusters were stained using anti-cleaved caspase 3 (Cell Signaling, cat #9661). Hoechst 33342, phalloidin, and secondary antibodies labeled with Alexa Fluor 488 nm, 546 nm, 647 nm, or 680 nm (Invitrogen) were used.
3D clusters were generated, embedded and stained as previously described (34, 35). In brief, clusters were generated by plating 1,000 cells per well into 96-well Nunclon Sphera low adhesion plates (Thermo Scientific, cat #174925) and incubated overnight at 37° C. The following day, 6 clusters were embedded into an ECM containing 2,000 NK cells were plated into one well of a Nunc Lab-Tek II 8-well chamber slide (ThermoScientific, cat #154534PK). To ensure equal distribution of NK cells in Matrigel, the NK cells were first suspended in the Matrigel stock, which was then aliquoted for individual cluster embedding. The ECM mixture consisted of 20% growth factor reduced Matrigel (Corning, 10-12 mg/ml stock concentration, #354230) and 80% rat tail collagen type I at 3 mg/mL (Gibco, A1048301). […]

In data set [4] the test system is PANC-1 cells. The data set is described as follows: NK cell lysis of PANC-1 cells in 2D cocultures. The data set is classed as cell-based, human.
Data set [5] deals with NK cell line.

Consider `N#C[C@@H]1CC(F)(F)CN1C(=O)CNC(=O)c1ccnc2ccccc12` [Cpd60], for which, in data set [1], the “Euclidian distance traveled by NK cells” value is “no significant impact”, the NK cell velocity entry is on record as “significantly reduced” and the “accumulated distance traveled by NK cells” value is “significantly reduced”. The “NK cell content in PANC-1 spheroids” value in data set [2] (any region) is “no effect”. Further, in data set [2] (mid-edge and mid-center regions), the “NK cell content in PSC spheroids” value was “significantly reduced”. Besides, the “NK cell content in PSC+PANC-1 spheroids” value in data set [2] (mid-edge region) is “significantly reduced”. For the same compound, in data set [3] (24-hour coculture), the “NK92-GFP cell infiltration into PANC-1 clusters embedded in matrix” value is listed as “significantly reduced” and the “NK92-GFP cell infiltration into PSC clusters embedded in matrix” value is reported as “significantly reduced”. Further, the cluster size entry in data set [3] (80% collagen/20% Matrigel) is “no effect”. Further, the “PANC-1 cell apoptosis in 2D cell cocultures with NK92” value in data set [4] is recorded as “no effect”. The “effect on NK cell viability” value in data set [5] is on record as “no effect”.
